Laboratory results from paper PMC7948405, “Small-molecule control of neurotransmitter sulfonation” (The Journal of Biological Chemistry, 2020).

Tests used:
Assay in all cases: Initial-rate inhibition of SULT-catalyzed 1-HP sulfonation
Assay type in all cases: biochemical
SULT1A3 = molecular target: T1, SULT1A3 (Homo sapiens, UniProt P0DMM9); conditions: parentheses 1 SD; for Ki: in vitro initial rate, 1-HP 5.0 μM, PAPS 0.50 mM, pH 7.5, 25 °C; for % Inhibition at saturation: in vitro, saturating inhibitor
T1 construct: E. coli–optimized SULT coding regions were inserted into a pGEX-6P expression vector; N-His/GST/MBP triple tag (PreScission-cleavable) (N, cleaved yes); made in house; host or cells: E. coli BL21(DE3)
T1 sequence (P0DMM9 whole entry): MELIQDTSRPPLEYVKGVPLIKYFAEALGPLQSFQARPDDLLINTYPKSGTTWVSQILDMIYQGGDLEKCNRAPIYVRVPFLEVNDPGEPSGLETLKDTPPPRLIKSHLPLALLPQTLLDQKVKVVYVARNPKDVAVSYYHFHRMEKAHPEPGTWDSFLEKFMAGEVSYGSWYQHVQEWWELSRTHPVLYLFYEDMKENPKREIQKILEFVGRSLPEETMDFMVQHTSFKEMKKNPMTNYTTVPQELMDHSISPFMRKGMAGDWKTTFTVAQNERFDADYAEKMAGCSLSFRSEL
Experimental: (§1) Figure 3 Affinity, specificity, and binding sites of CMP12 and CMP13. A and B, inhibition studies. Initial rates of SULT-catalyzed 1-HP sulfonation are plotted as a function of inhibitor concentration. Rates are normalized to the rate observed in the absence of the inhibitor. Inhibition of the major SULT isoforms found in the brain and liver were tested. SULT activity was monitored via the sulfonation-dependent change in 1-HP fluorescence (λex = 325 nm, λem = 375 nm ([15], [28])). Reaction conditions were as follows: SULT (20 nM, active sites), PAPS (0.50 mM, 17 × Km), 1-HP (5.0 μM, 61 × Km), KPO4 (50 mM), pH 7.5, 25(±2) °C. Less than 5% of the concentration-limiting substrate was converted to the product at reaction endpoints. Each data point is the average of three independent determinations. The lines passing through the data are least-squares fits to a noncompetitive partial-inhibition model (see Experiment and Initial rate). C, CMP8 competes with CMP12 and CMP13. Initial rates at saturating CMP12 or CMP13 are plotted as a function of CMP8 concentration. Rates are normalized to the rate observed in the absence of the inhibitor. […] Lines passing through the data are the predictions of a noncompetitive partial-inhibition model in which inhibitors compete for the same site (see Experiment and Binding competition). SULT, sulfotransferase; PAP, 3′-phosphoadenosine-5′-phosphate; SULT1A3, sulfotransferase 1A3; PAPS, 3’-phosphoadenosine 5’-phosphosulfate; 1-HP, 1-hydroxypyrene.
(§2) Initial-rate inhibition parameters were obtained from classical initial-rate studies ([16], [28], [43]). Reactions were initiated by addition of PAPS (0.50 mM, 17 × Km) to a solution containing SULT1A3 (20 nM, active sites), inhibitor (0.2–20 × Ki), 1-HP (5.0 μM, 60 × Km), and KPO4 (50 mM), pH 7.5, 25(±2) °C. Reaction progress was monitored via the fluorescence change associated with 1-HP sulfonation (λex = 325 nm, λem = […] ([15], [28])). Less than 5% of the 1-HP was converted to the product at reaction endpoints. Ki and kcat inh (i.e., turnover at saturating inhibitor and substrate) were obtained by fitting to the following quadratic equation for noncompetitive, partial inhibition at [S] >> Km ([44]):(7) v/Vmax=([Etot]+[ESI](α-1))/[Etot] where(8) α=kcat inh/kcat and(9) [ESI]=[([E]tot+[I]tot+Ki)−[([E]tot+[I]tot+Ki)^2−4·[I]tot·[E]tot]^1/2]/2

SULT2A1 = molecular target: T2, SULT2A1 (Homo sapiens, UniProt Q06520); conditions: concentrations as high as 10 μM
T2 construct: E. coli–optimized SULT coding regions were inserted into a pGEX-6P expression vector; N-His/GST/MBP triple tag (PreScission-cleavable) (N, cleaved yes); made in house; host or cells: E. coli BL21(DE3)
T2 sequence (Q06520 1-285): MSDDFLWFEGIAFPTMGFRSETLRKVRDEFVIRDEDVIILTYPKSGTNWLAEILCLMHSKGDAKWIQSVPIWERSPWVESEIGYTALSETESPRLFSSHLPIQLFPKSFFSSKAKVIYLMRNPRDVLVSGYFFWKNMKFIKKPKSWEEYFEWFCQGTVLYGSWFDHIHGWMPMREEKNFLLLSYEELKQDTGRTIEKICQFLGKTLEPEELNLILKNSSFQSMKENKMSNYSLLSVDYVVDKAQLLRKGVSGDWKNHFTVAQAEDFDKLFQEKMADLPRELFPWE
Experimental: (§3) The affinity and specificity of CMP12 and CMP13 were evaluated in initial-rate studies using the four major SULT isoforms expressed in the brain and liver ([27])—SULT1A1, SULT1E1, SULT1A3, and SULT2A1. Initial-rate vs [inhibitor] plots are presented in Fig. 3, A–B. The data are normalized to the rates in the absence of inhibitor. Solid lines passing through the data are the predictions of least-squares fitting to a single-binding-site, partial-inhibition model. The best-fit parameters are found in Table 1. […] Both compounds are partial inhibitors, and their percent inhibition values at saturation (83 and 98%, respectively) agree well with the predicted values.
as §1, §2

SULT1A1 = molecular target: T3, SULT1A1 (Homo sapiens, UniProt P50225)
T3 construct: E. coli–optimized SULT coding regions were inserted into a pGEX-6P expression vector; N-His/GST/MBP triple tag (PreScission-cleavable) (N, cleaved yes); made in house; host or cells: E. coli BL21(DE3)
T3 sequence (P50225 whole entry): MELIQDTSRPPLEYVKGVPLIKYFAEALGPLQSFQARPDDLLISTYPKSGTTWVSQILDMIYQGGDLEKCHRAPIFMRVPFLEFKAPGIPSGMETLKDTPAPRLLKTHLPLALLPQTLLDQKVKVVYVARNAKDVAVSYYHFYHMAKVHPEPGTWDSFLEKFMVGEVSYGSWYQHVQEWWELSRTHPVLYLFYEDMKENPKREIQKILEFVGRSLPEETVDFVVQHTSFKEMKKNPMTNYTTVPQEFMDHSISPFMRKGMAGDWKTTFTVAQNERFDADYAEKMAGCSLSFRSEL
Experimental: as §3, §1, §2

SULT1E1 = molecular target: T4, SULT1E1 (Homo sapiens, UniProt P49888); conditions: concentrations as high as 10 μM
T4 construct: E. coli–optimized SULT coding regions were inserted into a pGEX-6P expression vector; N-His/GST/MBP triple tag (PreScission-cleavable) (N, cleaved yes); made in house; host or cells: E. coli BL21(DE3)
T4 sequence (P49888 1-294): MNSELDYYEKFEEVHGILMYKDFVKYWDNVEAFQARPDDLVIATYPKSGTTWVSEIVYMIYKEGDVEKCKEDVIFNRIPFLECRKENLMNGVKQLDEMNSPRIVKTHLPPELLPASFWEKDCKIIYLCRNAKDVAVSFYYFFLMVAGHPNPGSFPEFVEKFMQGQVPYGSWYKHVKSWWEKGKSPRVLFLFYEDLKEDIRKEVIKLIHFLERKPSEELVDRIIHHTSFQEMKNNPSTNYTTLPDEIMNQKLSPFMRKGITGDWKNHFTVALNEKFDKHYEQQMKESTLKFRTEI
Experimental: as §3, §1, §2

Row | Compound | Ki (SULT1A3) [nM] | % Inhibition at saturation (SULT1A3) | inhibition of SULT2A1 (SULT2A1) | inhibition of SULT1A1 (SULT1A1; concentrations as high as 10 μM) | inhibition of SULT1E1 (SULT1E1) | Ki (SULT1A1; SULT1A1, initial rate) [nM]
1 | CC(C)Cc1ccc2cc(CCC(N)=O)ccc2n1 [CMP12] | 70 | 83 (4) % | no detectable inhibition | no detectable inhibition | no detectable inhibition | –
2 | CC(C)Cc1ccc2cc(/C=C/C(N)=O)cnc2n1 [CMP13] | 11 | 98 (2) % | behaved similarly | – | behaved similarly | 3100 ± 200
